US9562083B2, “Peptides and methods for inducing cell death” (Los Angeles Biomedical Research Institute at Harbor-UCLA …, priority 2010, dated 2017)

What was measured:
[1] = test system: Bacillus subtilis ATCC 6633; assay: Modified radial diffusion assay (zones of growth inhibition); format: cell-based; settings: pH 5.5 versus pH 7.5
Protocol: (§1) An agar radial diffusion assay has been used as described herein to determine antimicrobial activities of proteins against microbial pathogens in vitro. One million CFU will be mixed into 10 ml (i.e., 1×10^5 CFU/ml) of melted 1% agarose (in 10 mM NaHPO4 and cooled to 42° C.) containing minimal nutrient and adjusted to either pH 5.5 or pH 7.2. The agar is solidified in culture dishes, and sample wells are formed. Peptides at various concentrations are dissolved in 10 μl of 0.01% acetic acid buffer (pH 5.5 or 7.2), loaded into individual wells, and incubated at 37° C. for three hours. The plate is then overlayed with 1% agarose containing nutrients and incubated (37° C., for at least 24 hours). Peptides purified by RP-HPLC lacking antimicrobial activity are tested in parallel as controls. Zones of inhibition are measured to quantify antimicrobial activity. This assay will not distinguish between microbicidal and microbiostatic actions, but is highly sensitive to peptides with one or both functions.
(§2) The following assay is designed to measure the relative antimicrobial activity of peptides by determining zones of growth inhibition.
(§3) The top eleven prioritized target sequences identified in Example I (see Table 21) were synthesized by solid-phase chain extension synthesis using conventional techniques. Each synthetic peptide was purified by RP-HPLC, and authenticated for purity and correct sequence by mass spectroscopy. Stock concentrations of the synthetic peptides were prepared at 1 mg/mL in 0.01% acetic acid and adjusted to pH 7.2. Synthetic peptides were assessed for antimicrobial efficacy, spectra, and conditional optima (pH 5.5 or 7.5) using the following modified radial diffusion assay, as detailed in Yount and Yeaman, PNAS […] (2004).
(§4) Molecular grade agarose (1.0%) in 10 mM NaH2PO4H2O was prepared, pH adjusted to 7.5 or 5.5, and autoclaved for 15 minutes at 121° C., then held in a waterbath set at 48° C. until used. Mueller Hinton II overlay agarose was prepared by adding molecular grade agarose to Mueller Hinton II Broth at a final concentration of 1.0%, pH adjusted to 7.5 or 5.5, autoclaved for 10 minutes at 121° C., and then held at 48° C. until used.
(§5) Trypticase Soy Broth (TSB) (10 mL) we inoculated with an overnight growth of the test organism and incubated three to six hours until the organism reached log phase. The cells were collected by centrifugation, washed in PBS, then 0.01% acetic acid adjusted to pH 7.2. The pellet was resuspended in TSB and standardized to a 0.5 McFarland turbidity standard. A 10 μl aliquot of the inoculum is added to 10 mL of the pH-adjusted 1.0% molecular grade agarose cooled to 48° C. resulting in a final inoculum concentration of 5×10^5 CFU/mL. The suspension is poured into a 15×100 mm Petri dish and allowed to solidify.
(§6) After solidification had occurred, five 4 mm diameter wells were bored into the agarose. The central well was used as the acetic acid control while 10 μl of peptide stock solution was added to each of the other wells resulting in a final concentration of 10 μg peptide/well. The plates were incubated upright for three hours at 37° C., then overlaid with 10 mL of Mueller Hinton II agarose. After the overlay solidified, the plates were inverted and incubated overnight at 37° C.
(§7) The synthetic peptides identified in Table 22 were assayed for antimicrobial activity against known pathogenic microorganisms. These pathogenic microorganisms included five species of bacteria (Staphylococcus aureus, Escherichia coli, Salmonella typhimurium, Pseudomonas aeruginosa and Bacillus subtilis) and one species of fungi (Candida albicans) (see Table 23). Zones of growth inhibition were measured and were grouped as complete and/or partial growth zones for the assayed microorganism. Zones were considered complete clearance when there was no visible growth (i.e. completely clear or free of growth). […]

Escherichia coli ML-35 = assay: as above; format: cell-based; settings: pH 5.5 versus pH 7.5
Protocol: as §1, §2, §3, §4, §5, §6, §7

[2] = test system: Pseudomonas aeruginosa 01; assay: as above; format: cell-based; settings: pH 5.5 versus pH 7.5
Protocol: as §1, §2, §3, §4, §5, §6, §7

[3] = test system: Salmonella typhimurium 14028; assay: as above; format: cell-based; settings: pH 5.5 versus pH 7.5
Protocol: as §1, §2, §3, §4, §5, §6, §7

[4] = test system: Acinetobacter baumannii isolates; assay: Radial diffusion assay, Example III; format: cell-based; settings: pH 5.5 vs. pH 7.5
Protocol: as §3, §4, §5, §6
(§8) The synthetic peptides identified in Table 22 were assayed for antimicrobial activity against known pathogenic microorganisms. These pathogenic microorganisms included five species of bacteria (Staphylococcus aureus, Escherichia coli, Salmonella typhimurium, Pseudomonas aeruginosa and Bacillus subtilis) and one species of fungi (Candida albicans) (see Table 23). Zones of growth inhibition were measured and were grouped as complete and/or partial growth zones for the assayed microorganism. Zones were considered complete clearance when there was no visible growth (i.e. completely clear or free of growth). Zones were considered partial clearance when growth was impeded or partially cleared (i.e. reduction in microbial density as compared to adjacent confluent growth). The larger the zone size, the greater the antimicrobial activity of the test peptide. The lack of a zone is an indication of no antimicrobial activity of the test peptide against the target organism under the conditions tested.
(§9) Further to the methods disclosed in Example II, utilizing the same antimicrobial assay above, the antimicrobial activity of peptides Hol-III-4 (SEQ ID NO: 268) and Ncl-VIII-6 (SEQ ID NO: 152 was determined by identifying zones of growth inhibition.
(§10) Hol-III-4 and Ncl-VIII-6 peptides were assayed for antimicrobial activity against a panel of drug-resistant Gram-negative bacterial pathogens, specifically Pseudomonas aeruginosa, and various Acinetobacter spp. strains. […] The RP-1 peptide is well known in the art to have antimicrobial activity, as illustrated in Yeaman et al., Antimicrobial Agents and Chemotherapy, 46(12):3883-3891 (2002). The 6W-RP-1 peptide is a 6-Trp variant of RP-1, which also has antimicrobial activity, as illustrated in Kilelee et al, Antimicrobial Agents and Chemotherapy 54(10):4476-4479 (2010).

[5] = test system: Acinetobacter spp. strains (drug-resistant); assay: Radial diffusion assay, Example III; format: cell-based; settings: pH 5.5 and pH 7.5; all strains tested
Protocol: as §3, §4, §5, §6, §8, §9, §10

[6] = test system: Pseudomonas aeruginosa strains (drug-resistant); assay: Radial diffusion assay, Example III; format: cell-based; settings: pH 5.5 and pH 7.5; all strains tested
Protocol: as §3, §4, §5, §6, §8, §9, §10

[7] = known in the art; cited from earlier work

Substance	effect of acidic pH on antimicrobial activity [1]	effect of acidic pH on antimicrobial activity (Escherichia coli ML-35)	effect of acidic pH on antimicrobial activity [2]	effect of acidic pH on antimicrobial activity [3]	pH dependence of antimicrobial activity [4]	antimicrobial activity (zone of inhibition) [5]	antimicrobial activity (zone of inhibition) [6]	antimicrobial activity [7]
H-ALFYFASKLYLKALYTKV-NH2 [BaxP-I-18]	did not appear to affect the activity	did not appear to affect the activity	did not appear to affect the activity	did not appear to affect the activity				
H2N-IRLVSKYGKSKGIAYI-CONH2 (H-IRLVSKYGKSKGIAYI-NH2) [Ncl-VIII-6, designed from Nucleolin]	did not appear to affect the activity	did not appear to affect the activity	did not appear to affect the activity	did not appear to affect the activity	pH dependent	significant antimicrobial activity	significant antimicrobial activity	
H2N-SIGSLIKRFAYKKAGV-CONH2 (H-SIGSLIKRFAYKKAGV-NH2) [Hol-III-4, designed from Holin protein]	did not appear to affect the activity	did not appear to affect the activity	did not appear to affect the activity	did not appear to affect the activity	pH dependent	significant antimicrobial activity	significant antimicrobial activity	
N-AALYKKKIIKKLLES-C [PMP-2, C-terminal helix of the consensus molecule cPMP]								known to have antimicrobial activity
